Measured values as given in BindingDB's records for doi:10.7270/Q2CR5RTC (Burnham Center For Chemical Genomics, 2010).

Molecular target: T1, Tyrosine-protein phosphatase non-receptor type 22 (Homo sapiens, UniProt Q9Y2R2)
T1 sequence (Q9Y2R2 whole entry): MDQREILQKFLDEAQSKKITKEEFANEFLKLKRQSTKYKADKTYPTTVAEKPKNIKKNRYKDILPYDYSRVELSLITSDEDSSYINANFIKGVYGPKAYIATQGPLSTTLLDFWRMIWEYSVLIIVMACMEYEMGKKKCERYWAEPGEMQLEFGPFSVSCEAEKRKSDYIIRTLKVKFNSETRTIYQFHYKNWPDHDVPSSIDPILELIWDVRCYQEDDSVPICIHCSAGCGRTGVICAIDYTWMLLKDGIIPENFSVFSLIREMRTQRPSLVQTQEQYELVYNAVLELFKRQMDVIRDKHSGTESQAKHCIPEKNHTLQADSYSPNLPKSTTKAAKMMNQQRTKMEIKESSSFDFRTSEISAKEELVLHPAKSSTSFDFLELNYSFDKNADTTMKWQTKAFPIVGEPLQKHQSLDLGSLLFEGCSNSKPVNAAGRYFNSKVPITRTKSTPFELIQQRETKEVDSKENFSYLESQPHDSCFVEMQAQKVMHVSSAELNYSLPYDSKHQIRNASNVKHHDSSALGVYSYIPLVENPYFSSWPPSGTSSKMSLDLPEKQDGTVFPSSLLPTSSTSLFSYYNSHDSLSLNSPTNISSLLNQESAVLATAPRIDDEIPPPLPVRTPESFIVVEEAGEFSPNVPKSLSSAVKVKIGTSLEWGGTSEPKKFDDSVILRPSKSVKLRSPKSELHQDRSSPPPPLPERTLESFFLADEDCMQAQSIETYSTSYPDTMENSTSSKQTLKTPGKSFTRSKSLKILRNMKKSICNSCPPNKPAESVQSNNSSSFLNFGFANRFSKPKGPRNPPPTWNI
Assay: LYP phosphatase inhibitors, dose response, biochemical, fluorescence intensity, uHTS hits, set 2 (AID 435024)

For `Cc1ccc(NN=C2C(=O)N(CN3CCOCC3)c3ccccc32)cc1` [(3Z)-3-[(4-methylphenyl)hydrazinylidene]-1-(4-morpholinylmethyl)-2-indolone], which IC50 is on record?
The IC50 was > 79.4 µM.

With `O=C1C([N+](=O)[O-])=CC(Br)=CC1/C=N/n1cnnc1` (stereo not given) [MLS000714804] as the compound, how does the IC50 read?
Its IC50 is > 79.4 µM.

How did the IC50 turn out when `N=C(NN=Cc1ccc2c(c1)OCO2)Sc1cc(O)n(-c2ccc(C(=O)O)cc2)c1O` [4-(3-{[[(2E)-2-(1,3-benzodioxol-5-ylmethylene)hydrazino](imino)methyl]thio}-2,5-dioxopyrrolidin-1-yl)benzoic acid] was run?
The IC50 was 8.58 µM.

`COC1=CC=CC(/C=N/NC(=O)c2cc3cc([N+](=O)[O-])ccc3s2)C1=O` (stereo not given) [SMR000237814] was tested. Which IC50 did it give?
The IC50 was 13.1 µM.

How did the IC50 turn out when `CCOC(=O)NC(=O)C(C=Nc1ccc(C)cc1)C(=O)NC(=O)OCC` [ethyl 2-{[(ethoxycarbonyl)amino]carbonyl}-3-(4-toluidino)acryloylcarbamate] was run?
Its IC50 is > 79.4 µM.
